Ends that are not written are not given here.
Assays:
[1] = tested on: MN9D cells; assay: Oxygen consumption rate (Seahorse XF-24); format: cell-based
Method: Real-time measurement of oxygen consumption rate (OCR) of intact DNSP-11-treated MN9D cells, in the presence and absence of Complex I toxins, rotenone 1-5 ηM or TaClo 100-150 μM, were performed utilizing the Seahorse XF-24 extracellular flux analyzer. This instrument allows the simultaneous measurement of the mitochondrial bioenergetics from […] cell culture samples, without the mitochondrial isolation (and thus higher quantities of sample) needed for the standard (lower throughput) Clark-type electrode chamber. Details regarding the methods used for the Seahorse analysis were recently described in detail (Sauerbeck et al., Journal of Neuroscience Methods 198:36-43 (2011) incorporated herein by reference).
Briefly, following sensor preparation, calibration, and dose optimization, the basal and maximal oxygen consumption rates (OCR) were measured in intact MN9D neuronal cells in the absence and presence of 1 μM DNSP-11. […] Following electron transport chain uncoupling by 100 nM FCCP to measure the maximal OCR, treatment of MN9D neurons with DNSP-11 had nearly a 60% increase (p<0.001) versus control.

[2] = tested on: rat brain neurons; assay: Distribution, uptake and half-life of DNSP-11 in the brain (immunostaining); format: in vivo
Method: (§1) Additional studies were carried out to determine if DNSP-11 is actively taken up into dopamine-containing neurons in vivo. A single administration of 30 μg of DNSP-11 was delivered into the rat substantia nigra. Animals were euthanized at 0.5, 1.5, 4, 24 and 48 hrs after injection to visualize distribution of DNSP-11 using antibodies raised against DNSP-11 and the ubiquitinated form of DNSP-11. DNSP-11 antibodies labelled the cytosol and neurites of neurons in the area of the substantia nigra within 30 minutes after injection. DNSP-11 was taken up by neurons in both the substantia nigra, pars reticulata (SNr) and substantia nigra, pars compacta (SNc). […] Higher power micrographs from the SNc.
(§2) To assess the distribution, uptake and degradation of DNSP-11 in the brain, young adult male F344 rats, as a test organism, received injections of 30 μg DNSP-11 in the substantia nigra, hippocampus or cortex. They were euthanized by anesthesia overdose at various time points from 30 minutes to 48 hrs later and perfused through the heart with saline followed by paraformaldehyde.
(§3) Our standard published procedures for immuncytochemical staining were used (e.g. Gash D M et al., J Comp Neurol. 1995 December 18;363(3):345-58., Grondin et al., 2002; Ai et al., 2003). A polyclonal antibody was generated against DNSP-11 in rabbits (Alpha Diagnostic International, San Antonio, Tex.). Endogenous peroxidases were inactivated by incubation with 0.2% hydrogen peroxide (H2O2) for 10 minutes and background blocked with 4% normal serum, 1% bovine serum albumin (BSA) for 1 hour. Free floating sections were incubated in primary antisera. Sections were then exposed to the appropriate biotinylated IgG (Vecto Labs, Burlingame, Calif.) for 1 hour and then incubated in avidin-biotin-peroxidase complex using Elite ABC Vectastain Kits (Vector Labs) for 1 hour. Some sections were double-labeled using procedures following our published procedures for immunocytochemical staining to identify cells with two markers (e.g. Ai et al., 2003).
(§4) Controls for immunostaining included the omission of primary antibodies and replacement of primary antibodies with normal serum of the same species.

[3] = as above; format: in vivo, rat; conditions: male, F344, rat, brain, 30 ug; 30 μg intracerebral injection
Method: as §1, §2, §3, §4

[4] = tested on: E14 SD rat embryo primary dopaminergic neurons from the ventral mesencephalon; format: cell-based
Method: DNSP-11 treatment of Mesencephalic Cells: Timed pregnant SD rats (Harlan) were used to obtain the ventral mesencephalon from E14 fetuses. The dissected tissue was collected in cold Neurobasal™ medium and rinsed twice with cold Dulbecco's PBS. The cells were chemically (TrypLE®) and mechanically dissociated to yield a single cell suspension. The solution was centrifuged at 169 g for 6 minutes and the pellet was resuspended in Dulbecco's Modified Eagle Medium (DMEM). Cells were plated in a 25 μL micro-island at a density of 4000 cells/μL on poly-D-lysine coated 24-well plates (Sigma). Following adherence, cells were supplemented with warm NEUROBASAL™ media containing 2 mM glutamine, 1×N2, and 100 units of penicillin/streptomycin. Neurotrophic compounds were added at each media addition, including initial plating and DIV 2. A dose response of the peptides (0.03 ng to 10 ng/mL) was added to a 24-well plate following media supplementation.
The neurotrophic effects of DNSP-11 were studied by comparing its effects to the well-known effects of GDNF on the maintenance of primary mesencephalic cell cultures from E14 SD rat embryos. E14 SD rat embryo primary dopaminergic neurons from the ventral mesencephalon were grown for 5 days in vitro and neurotrophic molecules were added at each media change, including initial plating and day 2. […] These effects were similar to those observed for GDNF in these cells, including an increase in the size of TH+ neurons, which was not observed for DNSP-11 (Table 4).
In Table 1, cell survival and morphological parameters were quantified for control (citrate buffer) and experimental (0.1 ng/ml GDNF or 0.1 ng/ml DNSP-11) conditions. For morphology, five fields per well (minimum of 15 cells/field; 3-4 independent experiments) were photographed at 20× magnification and quantified using a Bioquant Image Analysis System. […] Soma size was not increased by the addition of DNSP-11. A one-way ANOVA was used to test for significance among groups, followed by a Newman-Keuls post hoc analysis. Significance between control and experimental conditions was determined at *p<0.05 and **p<0.01.

[5] = 30 μg bolus into mid-substantia nigra

In the case of “PPEAPAEDRSL-NH2 [DNSP-11, PPEAPAEDRSL-amide]”, the “basal and maximal OCRs, protection from rotenone” value ([1]; 1 nM, 2.5 nM and 5 nM rotenone) is reported as “protection”, the “basal OCR vs control treatment” value ([1]; 1 μM DNSP-11) is reported as “no significant effect” and the “reserve respiratory capacity (ratio maximal/basal OCR)” value ([1]; 1 μM DNSP-11) is reported as “significantly increases”. For the same substance, the “maximal OCR, increase versus control” value ([1]; 1 μM DNSP-11, uncoupling by 100 nM FCCP, p<0.001) was roughly 60%, the “basal and maximal OCRs, protection from TaClo” value ([1]; 100 μM and 150 μM TaClo) was “protection” and the “spread in the anterior-posterior plane” value [2, 5] was roughly 3 mm. For the same substance, the “spread in the medial-lateral plane” value [2, 5] was no more than 2 mm, the “time to uptake by neurons after injection” value ([2]; 30 μg injected into rat substantia nigra (all brain areas evaluated)) was no more than 30 min and the “immunohistochemical staining for DNSP-11” value ([2]; 3 hrs after injection into substantia nigra) was “diminished”. The “immunohistochemical staining for DNSP-11” value ([2]; 48 hours post peptide administration) was “no evidence of DNSP-11”, the “uptake into neurons of striatum, hippocampus and cortex” value ([2]; stereotaxic injections of 30 μg) was “Uptake was observed into neurons” and the half-life [3] was less than 1440 min. The Cell survival ([4]; 0.1 ng/ml, 5 days in vitro, control 100) was “*161 ± 17”, the “Average branches per neuron” value ([4]; 0.1 ng/ml, controls 3.8 ± 0.2 (GDNF), 3.1 ± 0.2 (DNSP-11)) was “**4.4 ± 0.3” and the “Soma size (um^2)” value ([4]; 0.1 ng/ml, controls 171 ± 4 (GDNF), 168 ± 3 (DNSP-11)) was 165 ± 5 um^2. For the same substance, the “Combined neurite length (um)” value ([4]; 0.1 ng/ml, controls 242 ± 12 (GDNF), 222 ± 11 (DNSP-11)) was “**306 ± 23 um” and the “TH+ neuron counts” value ([4]; 0.03, 0.1, 1.0 and 10 ng/ml) was “significantly increase”.

From patent US9402875B2, “Amidated dopamine neuron stimulating peptide restoration of mitochondrial activity” (University of Kentucky Research Foundation, priority 2006, dated 2016)
